Results as given in patent publication US20030203908A1, “Dihydrofolate reductase inhibitors” (priority 2000, published 2003).
≈ marks a conversion by molar mass, not a printed value. Where two headings read alike, the source gives them in different places.

Columns and labels:
Plasmodium berghei = test: In vivo activity against Plasmodium berghei in mice; conditions: P. berghei
Method: These analogues were tested in vivo in a mice against Plasmodium berghei.

[1] = target: T1, wild-type (wt) DHFR from Plasmodium falciparum (Plasmodium falciparum, UniProt P13922, N108S/R59C); test: Inhibition of wild-type pfDHFR (spectrophotometric, Ki); assay type: biochemical;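 note: Affinity-purified enzyme, initial reaction rates measured across a range of inhibitor concentrations, Ki obtained by nonlinear least-squares fitting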
T1 construct: The Dihydrofolate Reductase Domain of Plasmodium falciparum Thymidylate Synthase-Dihydrofolate Reductase; made in house
T1 sequence (P13922 10-228 R59C/N108S): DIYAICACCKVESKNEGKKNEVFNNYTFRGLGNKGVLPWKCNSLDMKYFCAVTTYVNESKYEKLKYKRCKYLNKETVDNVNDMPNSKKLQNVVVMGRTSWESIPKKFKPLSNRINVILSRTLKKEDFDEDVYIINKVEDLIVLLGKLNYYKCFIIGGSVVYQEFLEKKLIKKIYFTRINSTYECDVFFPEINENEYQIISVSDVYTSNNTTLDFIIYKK
Method: (§2) For determination of the Ki values of a number of synthesized analogues, the assay reactions were initiated with affinity-purified enzyme (^˜0.005-0.01 U ml^−1), and the initial velocities in the presence of varying concentrations of inhibitors were analysed by non-linear least square fit using Kaleidagraph™ software.

[2] = tested on: A16V.S108T mutant (mut) of DHFR from Plasmodium falciparum; test: biochemical; conditions: resistance factor
Method: as §2

[3] = target: T2, A16V.S108T mutant (mut) of DHFR from Plasmodium falciparum (Plasmodium falciparum, UniProt A7UD81, A16V/S108T); test: biochemical
T2 construct: The Dihydrofolate Reductase Domain of Plasmodium falciparum Thymidylate Synthase-Dihydrofolate Reductase; made in house
T2 sequence (A7UD81 1-231 A16V/S108T): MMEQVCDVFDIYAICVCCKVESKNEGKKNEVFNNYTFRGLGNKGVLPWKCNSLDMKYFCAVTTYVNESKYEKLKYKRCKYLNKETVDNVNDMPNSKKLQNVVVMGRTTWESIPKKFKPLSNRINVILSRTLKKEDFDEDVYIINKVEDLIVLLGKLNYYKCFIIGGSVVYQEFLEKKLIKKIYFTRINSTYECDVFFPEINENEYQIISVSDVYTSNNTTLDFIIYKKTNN
Method: as §2

[4] = tested on: wild-type (TM4/8.2) strain of P. falciparum; test: microbe, parasite or virus in culture; assay type: cell-based, Plasmodium falciparum
Method: (§1) Mol. Biochem. Parasitol. […] Science, 1976, 193, 673-675]. In vitro antimalarial activity was determined by using [^3H]-hypoxanthine incorporation method [Desjardins, R. E.; Canfield, C. J.; Haynes, J. D.; Chulay, J. D. Quantitative assessment of antimalarial activity in vitro by a semiautomated microdilution technique. Antimicrob Agents Chemother. 1979, 16, 710-718]. The drugs were initially dissolved in DMSO and diluted with the culture media. Aliquots (25 μl) of drug solution of different concentrations was placed in 96-well plate together with 200 μl of 1.5% cell suspension of parasitized erythrocytes containing 1-2% parasitemia. Final concentration of DMSO was 0.1% where there was no effect on the parasite growth. The mixtures were incubated in a 3% CO2 incubator at 37° C. After 24 h of incubation, 25 μl (0.25 μCi) of [^3H]-hypoxanthine were added to each well. The mixtures were further incubated under the same condition for 18-24 h. DNA of parasites was harvested onto glass filter paper (Unifilter, Packard, USA). The filters were dried and liquid scintillation fluid was added for radioactivity measurement in a 6-probe liquid scintillation-counter (Packard, USA).

[5] = tested on: P. falciparum 3D7 (wild-type strain); test: In vitro inhibition of P. falciparum 3D7; assay type: cell-based, Plasmodium falciparum; conditions: 3D7 strain
[6] = target: T3, DHFR-TS from Trypanosoma cruzi (Trypanosoma cruzi, UniProt Q27793); test: Inhibition of T. cruzi DHFR-TS (I50-derived Ki);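 for all read-outs here: enzymes were recombinant T. cruzi DHFR-TS and human DHFR, both expressed in E. coli and purified on a methotrexate affinity column, with dihydrofolate and NADPH as substrates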; assay type: biochemical; conditions: for Selectivity: human Ki / T. cruzi Ki
T3 construct: pET 11c with the insertion of the complete ORF of the gene tc-dhfrts; made in house; host or cells: E. coli BL21 (DE3)
T3 sequence (Q27793 whole entry): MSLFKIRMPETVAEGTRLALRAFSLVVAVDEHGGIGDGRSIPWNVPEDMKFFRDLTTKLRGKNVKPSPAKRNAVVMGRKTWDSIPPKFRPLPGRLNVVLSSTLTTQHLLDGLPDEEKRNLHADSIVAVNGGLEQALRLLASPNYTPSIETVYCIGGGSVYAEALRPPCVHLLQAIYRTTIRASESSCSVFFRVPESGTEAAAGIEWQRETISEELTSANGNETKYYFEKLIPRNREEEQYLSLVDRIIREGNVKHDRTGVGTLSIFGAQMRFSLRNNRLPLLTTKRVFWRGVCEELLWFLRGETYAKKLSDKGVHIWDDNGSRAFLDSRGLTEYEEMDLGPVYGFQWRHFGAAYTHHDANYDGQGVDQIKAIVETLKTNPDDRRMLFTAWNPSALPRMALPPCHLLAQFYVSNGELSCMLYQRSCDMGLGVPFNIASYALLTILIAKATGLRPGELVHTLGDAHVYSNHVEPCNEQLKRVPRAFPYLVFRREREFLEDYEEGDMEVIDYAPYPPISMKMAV
Method: DHFR activity was measured spectrophotometrically by monitoring the decrease in absorbance at 340 mm.
Inhibition of dihydrofolate reductases by 1,2-dihydro-1,3,5 triazines was analysed with T. cruzi and human DHFR.
DHFR assays contained 30 mM dihydrofolate, 0.1 mM NADPH, 50 mM TES buffer pH 7, 75 mM 2-mercaptoethanol and specified amounts of inhibitors. The reaction was initiated by addition of 2.8 or 2.3 units of T. cruzi and human, respectively, and monitored at 340 nm.
Selective inhibition of dihydrofolate reductase by 1,2-dihydro-1,3,5-triazines was analysed with T. cruzi and human DHFR. DHFR assays contained 30 μM dihydrofolate, 0.1 mM NADPH, 50 mM TES buffer pH 7, 75 mM β-mercaptoethanol and specified amounts of inhibitors. The reaction was initiated by addition of 2.8 or 2.3 units of T. cruzi and human enzyme, respectively, and monitored at 340 nm.
KiI 50=[I]0.5/((1+[S])/Km)

human DHFR [7] = test: Inhibition of human DHFR (I50-derived Ki); assay type: biochemical;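 note: recombinant human DHFR expressed in E. coli and purified by methotrexate affinity chromatography, enzyme activity followed spectrophotometrically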
human DHFR [8] = target: T4, human DHFR (Homo sapiens, UniProt P00374); test: Inhibition of human DHFR (I50-derived Ki); assay type: biochemical;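 note: recombinant human DHFR expressed in E. coli and purified by methotrexate affinity chromatography, enzyme activity followed spectrophotometrically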
T4 construct: made in house; host or cells: E. coli M15
T4 sequence (P00374 1-187): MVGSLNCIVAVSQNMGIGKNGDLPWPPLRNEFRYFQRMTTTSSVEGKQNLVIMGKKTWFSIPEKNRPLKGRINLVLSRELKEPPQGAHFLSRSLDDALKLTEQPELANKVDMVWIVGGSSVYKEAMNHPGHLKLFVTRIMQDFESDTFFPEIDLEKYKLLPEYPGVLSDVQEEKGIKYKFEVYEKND

[9] = tested on: P. falciparum FCR3 (resistant strain containing the A16V.S108T DHFR mutant); test: In vitro inhibition of P. falciparum FCR3; assay type: cell-based, Plasmodium falciparum; conditions: for IC50: Plasmodium falciparum, read-out: Pf-FCR3 ED50
[10] = tested on: resistant T9/94 strain of P. falciparum (A16V.S108T pfDHFR); test: In vitro antimalarial activity, [3H]-hypoxanthine incorporation, T9/94; assay type: cell-based, Plasmodium falciparum; conditions: resistant strain T9/94
Method: as §1

[11] = Plasmodium falciparum, wild-type strain TM4/8.2
[12] = T. cruzi DHFR-TS, read-out: T. cruzi Ki (I50)
[13] = A16V.S108T mutant pfDHFR, read-out: Ki(mut)

SMILES | Mean % infected RBC (Plasmodium berghei; 25 mg/kg daily x4) | Ki ([1]; Ki(wt) nM) | Ki(mut)/Ki(wt) [2] | Ki [3] | IC50 [4, 11] | Selectivity [6] | Ki (human)/Ki (P. falc. mut) (human DHFR [7]) | Ki (human)/Ki (P. falc. wt) (human DHFR [7]) | Ki (human)/Ki (T. cruzi) (human DHFR [7]) | IC50 [10] | Ki ([1]; read-out: Ki(wt)) | Ki [6, 12] | Ki [3, 13] | IC50 ([4]; wild-type strain TM4/8.2) | also measured
NC1=NC(c2cccc(Oc3ccc(Cl)c(Cl)c3)c2)N(c2cccc(Cl)c2)C(N)=N1 (stereo not drawn) [(Ib) R2=3-(3,4-dichlorophenoxy)phenyl] | 13.0% | 2.2 ± 0.2 nM | 4.1 | 9.1 ± 0.7 nM | 3900 nM | – | – | – | – | – | – | – | – | – | –
NC1=NC(c2cccc(Oc3ccccc3)c2)N(c2cccc(Cl)c2)C(N)=N1 (stereo not drawn) [(Ib) R2=3-phenoxyphenyl, 1-m-chlorophenyl-2-m-phenoxyphenyl-4,6-diamino-1,2-dihydro-1,3,5-triazine] | 7.05% | 1 ± 0.2 nM | 1.9 | 1.9 nM | 2300 nM | 0.5 | 0.8 | 1.8 | 0.5 | – | – | – | – | – | IC50 ([5]; Plasmodium falciparum, read-out: Pf-3D7 ED50): 220 ng/mL (≈ 0.561 µM); Ki [6]: 4 nM; Ki (human DHFR [8]; Human Ki (I50)(nM), human DHFR): 2 nM; inhibitory activity against human DHFR (human DHFR [8]; compared with methotrexate): comparable to that of methotrexate; ED50 against the resistant Pf FCR-3 strain in vitro [9]: 0.8 nM; IC50 ([9]; in vitro, FCR3 strain): 0.8 ng/mL (≈ 0.00204 µM)
COc1ccc(Oc2cccc(C3N=C(N)N=C(N)N3c3cccc(Cl)c3)c2)cc1 (stereo not drawn) [(Ib) R2=3-(4-methoxyphenoxy)phenyl] | 1.94% | 2.3 ± 0.1 nM | 1.1 | 2.5 ± 0.3 nM | 4120 nM | – | – | – | – | – | – | – | – | – | –
NC1=NC(c2cccc(OCc3ccccc3)c2)N(c2cccc(COc3cc(Cl)c(Cl)cc3Cl)c2)C(N)=N1 (stereo not drawn) [(Id1) R2=3-benzyloxyphenyl] | – | – | 1.1 | – | – | 0.73 | 1.9 | 2.1 | 0.7 | 1730 nM | 10.3 ± 2.6 nM | 30 nM | 11.7 ± 3.2 nM | 14000 nM | Ki (human DHFR [8]; read-out: Human Ki (I50)): 22 nM
NC1=NC(c2ccc(Cl)cc2)N(c2ccc(Cl)cc2)C(N)=N1 (stereo not drawn) [(Ia) R2=p-chlorophenyl] | – | – | 14.0 | – | – | 11 | 28 | 395 | 11.0 | 386 nM | 7.5 ± 0.9 nM | 270 nM | 105 ± 17 nM | 499 nM | Ki (human DHFR [8]; human DHFR, read-out: Human Ki (I50)): 2960 nM
NC1=NC(c2ccc(Oc3ccccc3)cc2)N(c2cccc(Cl)c2)C(N)=N1 (stereo not drawn) [(Ib) R2=4-phenoxyphenyl] | – | 0.7 nM | 3.9 | 2.7 ± 0.4 nM | 647 nM | – | – | – | – | – | – | – | – | – | Mean % infected RBC (Plasmodium berghei; 25 mg/kg, schedule b): 11.42%; IC50 ([9]; in vitro, FCR3 strain): 4 ng/mL (≈ 0.0102 µM)
NC1=NC(c2cccc(Oc3ccccc3)c2)N(c2cccc(/C=C/c3ccc(Cl)cc3Cl)c2)C(N)=N1 (stereo not drawn) [(Id2) R2=3-phenoxyphenyl] | – | – | 1.7 | – | – | – | – | – | – | 4320 nM | 6.5 ± 0.5 nM | – | 10.8 ± 1.2 nM | 4110 nM | –
CCCCOc1ccc(C2N=C(N)N=C(N)N2c2cccc(Cl)c2)cc1 (stereo not drawn) [R2=4-nBuOC6H4, X=H, Y=Cl] | 16.46% | – | – | – | – | – | – | – | – | – | – | – | – | – | Pf-3D7 ED50 [5]: 300 ng/mL; Pf-FCR3 ED50 ([9]; in vitro, FCR3 strain): 3.8 ng/mL
NC1=NC(c2cccc(OCc3ccccc3)c2)N(c2ccc(OCc3ccccc3)cc2)C(N)=N1 (stereo not drawn) [R2=3-BnOC6H4, X=BnO, Y=H, 1-p-benzyloxyphenyl-2-m-benzyloxyphenyl-4,6-diamino-1,2-dihydro-1,3,5-triazine] | – | – | 4.4 | – | – | 8.0 | 56 | 245 | 8.0 | 255 nM | 1.3 ± 0.2 nM | 40 nM | 5.7 ± 0.6 nM | – | Ki (human DHFR [8]; read-out: Human Ki (I50)): 319 nM; IC50 [4]: 3450 nM
